According to US20200138020A1, “MICROBICIDAL COMPOSITION” (DDP Specialty Electronic Materials US 8, LLC, priority 2017, published 2020):
Where two headings read alike, the source gives them in different places.

Key:
[1] = test system: Candida albicans ATCC 10231; assay: Synergy test: high resolution MIC microtiter plate assay, Potato Dextrose Broth; format: cell-based; settings: C. albicans ATCC 10231, PDB, contact time 48 hours; for SI (Synergy Index, Qa/QA+Qb/QB): <1 synergy; for MIC: Candida albicans, ATCC10231, 25 °C
Text: (§1) One measure of synergism is the industrially accepted method described by Kull, F. C.; Eisman, P. C.; Sylwestrowicz, H. D. and Mayer, R. L., in Applied Microbiology 9:538-541 (1961), using the ratio determined by the formula:
(§2) Qa/QA+Qb/QB=Synergy Index (“SI”)
(§3) wherein: • QA=concentration of compound A (first component) in ppm, acting alone, which produced an end point (MIC of Compound A). • Qa=concentration of compound A in ppm, in the mixture, which produced an end point. • QB=concentration of compound B (second component) in ppm, acting alone, which produced an end point (MIC of Compound B). • Qb=concentration of compound B in ppm, in the mixture, which produced an end point.
(§4) When the sum of Qa/QA and Qb/QB is greater than one, antagonism is indicated. […] The lower the SI, the greater is the synergy shown by that particular mixture. The minimum inhibitory concentration (MIC) of a microbicide is the lowest concentration tested under a specific set of conditions that prevents the growth of the tested microorganisms.
(§5) Synergy tests were conducted using standard microtiter plate assays with media designed for optimal growth of the test microorganism. Potato Dextrose Broth (PDB medium) was used for testing yeast and mold. In this method, a wide range of combinations of microbicides and other personal care raw materials was tested by conducting high resolution MIC assays in the presence of lactic acid. High resolution MICs were determined by adding varying amounts of microbicide to one column of a microtitre plate and doing subsequent […] dilutions using an automated liquid handling system to obtain a series of closely spaced endpoints.
(§6) The synergy of the combinations of the present invention was determined against a yeast, Candida albicans (C. albicans ATCC 10231) and a mold, Aspergillus brasiliensis (A. brasiliensis ATCC 16404). The yeast and mold were used at concentrations of 5×10^5 cells per mL. These microorganisms are representative of natural contaminants in many consumer and industrial applications.
(§7) In this test, First Component (A) was lactic acid and the Second Component (B) was phenethyl alcohol.
• Candida albicans • ATCC 10231 • Potato Dextrose Broth • Contact Time=48 hours

[2] = test system: Aspergillus brasiliensis ATCC 16404; assay: as above; format: cell-based; settings: A. brasiliensis ATCC 16404, PDB, contact time 3 days; for SI (Synergy Index, Qa/QA+Qb/QB): <1 synergy; for MIC: Aspergillus brasiliensis, ATCC16404, 72 h, 25 °C
Text: as §1, §2, §3, §4, §5, §6, §7
• Aspergillus brasiliensis • ATCC 16404 • Potato Dextrose Broth • Contact Time=3 days

[3] = read-out: MIC for phenethyl alcohol alone (QB)
[4] = read-out: MIC for lactic acid alone (QA)

SMILES	SI (Synergy Index, Qa/QA+Qb/QB) [1]	MIC [1, 3] [µg/mL]	SI (Synergy Index, Qa/QA+Qb/QB) [2]	MIC [2, 3] [µg/mL]	MIC [1, 4] [µg/mL]	MIC [2, 4] [µg/mL]
OCCc1ccccc1 [Phenethyl Alcohol, 2-phenylethan-1-ol]	1.00	10000	1.00	10000	–	–
CC(O)C(=O)O (centres unmarked) [Lactic Acid, 2-hydroxypropanoic acid]	1.00	–	1.00	–	6000	30000
